# The supplement of paper PMC10307832
# Key:
# Assay in all cases: relative viability (nuclei count vs DMSO), 5 days (fraction); higher = more cells survive
# GSK126 + Navitoclax = compound: CC[C@H](C)N1C=C(C2=C(C=C(C=C21)C3=CN=C(C=C3)N4CCNCC4)C(=O)NCC5=C(C=C(NC5=O)C)C)C [GSK126] + CC1(C)CCC(c2ccc(Cl)cc2)=C(CN2CCN(c3ccc(C(=O)NS(=O)(=O)c4ccc(N[C@H](CCN5CCOCC5)CSc5ccccc5)c(S(=O)(=O)C(F)(F)F)c4)cc3)CC2)C1 [Navitoclax] (partner 0.5 µM)
# Procedure, shortened: (§1)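 Each reported value is a median over duplicate plates. It expresses relative viability: treated-well nuclei count divided by vehicle-well nuclei count. Lung cancer cell lines in 1536-well plates were dosed by pin tool a day after seeding, alone with one drug or with a fixed anchor-drug dose plus five library-drug doses (not always all listed) in √10 steps, and nuclei were counted after 5 days.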
# MLN4924 + AZD7762 = compound: NS(=O)(=O)OC[C@@H]1C[C@@H](n2ccc3c(N[C@H]4CCc5ccccc54)ncnc32)C[C@@H]1O [MLN4924] + NC(=O)Nc1cc(-c2cccc(F)c2)sc1C(=O)N[C@H]1CCCNC1 [AZD7762] (partner 0.2 µM)
# Procedure, shortened: as §1
# MLN4924 + Decitabine = compound: NS(=O)(=O)OC[C@@H]1C[C@@H](n2ccc3c(N[C@H]4CCc5ccccc54)ncnc32)C[C@@H]1O [MLN4924] + Nc1ncn([C@H]2C[C@H](O)[C@@H](CO)O2)c(=O)n1 [Decitabine] (partner 2 µM)
# Procedure, shortened: as §1
# MLN4924 + Vorinostat = compound: NS(=O)(=O)OC[C@@H]1C[C@@H](n2ccc3c(N[C@H]4CCc5ccccc54)ncnc32)C[C@@H]1O [MLN4924] + O=C(CCCCCCC(=O)Nc1ccccc1)NO [Vorinostat] (partner 1 µM)
# Procedure, shortened: as §1
Cell Line,relative viability (GSK126 + Navitoclax; first compound 0.08 µM),relative viability (GSK126 + Navitoclax; first compound 0.253 µM),relative viability (GSK126 + Navitoclax; first compound 0.8 µM),relative viability (GSK126 + Navitoclax; first compound 2.53 µM),relative viability (GSK126 + Navitoclax; first compound 8 µM),relative viability (MLN4924 + AZD7762; first compound 0.04 µM),relative viability (MLN4924 + AZD7762; first compound 0.1265 µM),relative viability (MLN4924 + AZD7762; first compound 0.4 µM),relative viability (MLN4924 + AZD7762; first compound 1.265 µM),relative viability (MLN4924 + AZD7762; first compound 4 µM),relative viability (MLN4924 + Decitabine; first compound 0.04 µM),relative viability (MLN4924 + Decitabine; first compound 0.1265 µM),relative viability (MLN4924 + Decitabine; first compound 0.4 µM),relative viability (MLN4924 + Decitabine; first compound 1.265 µM),relative viability (MLN4924 + Decitabine; first compound 4 µM),relative viability (MLN4924 + Vorinostat; first compound 0.04 µM),relative viability (MLN4924 + Vorinostat; first compound 0.1265 µM),relative viability (MLN4924 + Vorinostat; first compound 0.4 µM),relative viability (MLN4924 + Vorinostat; first compound 1.265 µM),relative viability (MLN4924 + Vorinostat; first compound 4 µM)
HOP-62,1.01,1.06,1.06,0.916,0.979,0.438,0.263,0.111,0.051,0.0648,0.195,0.201,0.0844,0.0618,0.0785,0.395,0.378,0.116,0.0547,0.0779
EPLC-272H,1.24,1.15,1.29,1.17,1.2,0.27,0.239,0.0814,0.133,0.106,0.325,0.284,0.0744,0.108,0.106,0.195,0.184,0.098,0.0963,0.144
NCI-H647,1.14,1.05,1.07,1.11,1.15,0.412,0.334,0.0972,0.0222,0.0279,0.363,0.221,0.142,0.0732,0.0787,0.414,0.391,0.0893,0.0464,0.0578
NCI-H2405,0.76,0.708,0.805,0.895,0.552,1.05,0.964,0.557,0.225,0.245,0.659,0.483,0.406,0.28,0.28,0.861,0.849,0.411,0.181,0.19
NCI-H2170,0.623,0.607,0.575,0.632,0.606,0.9,0.536,0.544,0.147,0.112,0.444,0.249,0.273,0.167,0.144,0.774,0.364,0.326,0.135,0.13
NCI-H322M,1.19,1.35,1.11,1.22,1.17,0.688,0.643,0.64,0.317,0.39,0.707,0.65,0.62,0.469,0.491,1.27,1.47,0.863,0.38,0.475
NCI-H2085,1.16,1.12,1.19,1.09,1.19,0.989,0.972,1.07,0.941,0.603,0.492,0.58,0.612,0.48,0.424,0.769,0.829,0.837,0.635,0.45
PC-3 [JPC-3],0.877,0.862,0.874,0.76,0.753,0.854,0.964,0.736,0.328,0.334,0.808,0.83,0.408,0.46,0.451,0.735,0.787,0.409,0.338,0.468
NCI-H1355,0.985,1.07,0.911,1.01,1.02,0.833,0.875,0.788,0.441,0.234,0.367,0.307,0.321,0.215,0.184,0.592,0.629,0.496,0.236,0.227
NCI-H838,1.15,1.18,1.09,1.1,0.978,0.916,0.82,0.737,0.589,0.618,0.351,0.257,0.224,0.176,0.186,0.631,0.4,0.284,0.168,0.151
NCI-H1755,1.07,0.996,0.999,0.997,0.969,0.604,0.682,0.666,0.411,0.255,0.644,0.545,0.526,0.378,0.245,0.711,0.494,0.466,0.338,0.261
NCI-H1651,1.19,0.943,1.07,1.07,1.2,0.495,0.53,0.47,0.436,0.158,0.578,0.586,0.46,0.216,0.146,0.585,0.613,0.638,0.474,0.239
LK-2,0.957,0.772,0.819,0.789,0.756,0.329,0.307,0.309,0.124,0.155,0.228,0.253,0.216,0.118,0.156,0.271,0.277,0.227,0.509,0.198
HCC-366,1.17,1.02,1.09,1.12,1.05,0.312,0.56,0.526,0.297,0.0472,0.335,0.338,0.279,0.164,0.0343,0.327,0.348,0.322,0.0422,0.0392
PC-14,1.04,0.998,1.02,0.95,0.804,0.335,0.405,0.347,0.166,0.127,0.275,0.177,0.105,0.0656,0.104,0.81,0.781,0.154,0.0306,0.0361
ChaGo-K-1,1.19,0.925,1.03,1.27,1.09,0.861,0.701,0.508,0.193,0.159,0.409,0.276,0.297,0.2,0.184,0.681,0.593,0.299,0.167,0.174
NCI-H441,0.948,0.429,0.578,0.878,0.678,1.23,1.12,0.722,0.452,0.173,0.253,0.241,0.22,0.158,0.175,0.859,0.733,0.576,0.158,0.152
NCI-H1395,1.59,1.04,1.09,1.33,0.95,0.493,0.416,0.383,0.408,0.331,0.704,0.596,0.461,0.359,0.346,0.556,0.766,0.523,0.341,0.361
NCI-H727,0.444,0.354,0.51,0.408,0.361,0.574,0.432,0.402,0.372,0.242,0.783,0.823,0.546,0.493,0.502,1.17,0.847,0.819,0.477,0.451
NCI-H1734,0.895,0.845,0.843,0.881,0.86,0.863,0.641,0.204,0.104,0.111,0.514,0.472,0.197,0.141,0.135,0.792,0.565,0.208,0.132,0.113
EMC-BAC-2,1.09,1.18,1.14,1.18,1.23,1.06,0.869,0.377,0.224,0.288,0.829,0.663,0.428,0.219,0.264,0.39,0.392,0.236,0.179,0.279
EKVX,0.984,0.95,0.902,0.97,0.853,0.854,0.784,0.674,0.314,0.232,0.35,0.369,0.346,0.22,0.191,0.632,0.276,0.41,0.201,0.217
NCI-H596,0.92,0.85,0.988,1.1,0.961,1.04,1.22,1.06,1.15,1.19,1.09,1.1,0.933,0.97,0.727,0.471,0.597,0.601,0.382,0.418
LOU-NH91,0.732,0.656,0.68,0.751,0.706,0.785,0.95,0.823,0.645,0.459,0.793,0.797,0.684,0.557,0.523,0.581,0.938,0.661,0.475,0.506
NCI-H1437,1.14,1.11,1.04,1.03,1.03,0.999,0.852,0.855,0.589,0.285,0.529,0.435,0.438,0.254,0.249,0.769,0.621,0.385,0.229,0.193
H3255,0.591,0.606,0.5,0.522,0.505,0.784,0.797,0.457,0.267,0.33,0.469,0.392,0.338,0.228,0.218,0.668,0.642,0.334,0.239,0.304
